Assay results taken from PubChem BioAssay (NCI).
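Tested at 5 concentrations; 48 h exposure; 96-well plates; endpoints linearly interpolated, else capped at highest concentration. The concentration for full growth arrest is given as TGI.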

Tests used:
Assay in all cases: NCI-60 cell line screen, 48 h
DU-145 prostate = tested on: DU-145 prostate
MCF7 breast = tested on: MCF7 breast
HOP-92 NSCLC = tested on: HOP-92 NSCLC
BT-549 breast = tested on: BT-549 breast
ACHN renal = tested on: ACHN renal
OVCAR-4 ovarian = tested on: OVCAR-4 ovarian
HOP-62 NSCLC = tested on: HOP-62 NSCLC
LOX IMVI melanoma = tested on: LOX IMVI melanoma
M14 melanoma = tested on: M14 melanoma
A549 NSCLC = tested on: A549 NSCLC
SW-620 colon = tested on: SW-620 colon
UACC-257 melanoma = tested on: UACC-257 melanoma
SF-539 CNS = tested on: SF-539 CNS
786-0 renal = tested on: 786-0 renal
HS 578T breast = tested on: HS 578T breast
OVCAR-8 ovarian = tested on: OVCAR-8 ovarian
UACC-62 melanoma = tested on: UACC-62 melanoma
UO-31 renal = tested on: UO-31 renal
OVCAR-3 ovarian = tested on: OVCAR-3 ovarian
HT29 colon = tested on: HT29 colon
NCI-H23 lung = tested on: NCI-H23 lung
SNB-19 CNS = tested on: SNB-19 CNS
T-47D breast = tested on: T-47D breast
HL-60(TB) leukemia = tested on: HL-60(TB) leukemia
COLO 205 colon = tested on: COLO 205 colon
SK-MEL-28 melanoma = tested on: SK-MEL-28 melanoma
SNB-75 CNS = tested on: SNB-75 CNS
NCI-H460 lung = tested on: NCI-H460 lung
SK-OV-3 ovarian = tested on: SK-OV-3 ovarian
CAKI-1 renal = tested on: CAKI-1 renal
HCT-116 colon = tested on: HCT-116 colon
SF-268 CNS = tested on: SF-268 CNS
SK-MEL-5 melanoma = tested on: SK-MEL-5 melanoma
TK-10 renal = tested on: TK-10 renal
SN12C renal = tested on: SN12C renal
HCC-2998 colon = tested on: HCC-2998 colon
U251 CNS = tested on: U251 CNS
NCI-H226 lung = tested on: NCI-H226 lung
RPMI-8226 leukemia = tested on: RPMI-8226 leukemia
SR leukemia = tested on: SR leukemia
SF-295 CNS = tested on: SF-295 CNS
SK-MEL-2 melanoma = tested on: SK-MEL-2 melanoma
MDA-MB-231 breast = tested on: MDA-MB-231 breast
EKVX NSCLC = tested on: EKVX NSCLC
MDA-MB-435 = tested on: MDA-MB-435
K-562 leukemia = tested on: K-562 leukemia
MDA-N = tested on: MDA-N
NCI-H522 lung = tested on: NCI-H522 lung
RXF 393 renal = tested on: RXF 393 renal
CCRF-CEM leukemia = tested on: CCRF-CEM leukemia
KM12 colon = tested on: KM12 colon
HCT-15 colon = tested on: HCT-15 colon
MALME-3M melanoma = tested on: MALME-3M melanoma
NCI/ADR-RES ovarian = tested on: NCI/ADR-RES ovarian
IGROV1 ovarian = tested on: IGROV1 ovarian
MOLT-4 leukemia = tested on: MOLT-4 leukemia
OVCAR-5 ovarian = tested on: OVCAR-5 ovarian
PC-3 prostate = tested on: PC-3 prostate

Clc1ccc(Cc2nc3ccccc3o2)cc1
TGI (DU-145 prostate): > 100 µM
TGI (MCF7 breast): > 100 µM
TGI (HOP-92 NSCLC): > 100 µM
TGI (BT-549 breast): > 100 µM
TGI (ACHN renal): > 100 µM
TGI (OVCAR-4 ovarian): > 100 µM
TGI (HOP-62 NSCLC): > 100 µM
TGI (LOX IMVI melanoma): > 100 µM
TGI (M14 melanoma): > 100 µM
TGI (A549 NSCLC): > 100 µM
TGI (SW-620 colon): > 100 µM
TGI (UACC-257 melanoma): > 100 µM
TGI (SF-539 CNS): > 100 µM
TGI (786-0 renal): > 100 µM
TGI (HS 578T breast): > 100 µM
TGI (OVCAR-8 ovarian): > 100 µM
TGI (UACC-62 melanoma): > 100 µM
TGI (UO-31 renal): > 100 µM
TGI (OVCAR-3 ovarian): > 100 µM
TGI (HT29 colon): > 100 µM
TGI (NCI-H23 lung): > 100 µM
TGI (SNB-19 CNS): > 100 µM
TGI (T-47D breast): > 100 µM
TGI (HL-60(TB) leukemia): > 100 µM
TGI (COLO 205 colon): > 100 µM
TGI (SK-MEL-28 melanoma): > 100 µM
TGI (SNB-75 CNS): 91.2 µM
TGI (NCI-H460 lung): > 100 µM
TGI (SK-OV-3 ovarian): > 100 µM
TGI (CAKI-1 renal): > 100 µM
TGI (HCT-116 colon): > 100 µM
TGI (SF-268 CNS): > 100 µM
TGI (SK-MEL-5 melanoma): > 100 µM
TGI (TK-10 renal): > 100 µM
TGI (SN12C renal): > 100 µM
TGI (HCC-2998 colon): > 100 µM
TGI (U251 CNS): > 100 µM
TGI (NCI-H226 lung): > 100 µM
TGI (RPMI-8226 leukemia): > 100 µM
TGI (SR leukemia): > 100 µM
TGI (SF-295 CNS): > 100 µM
TGI (SK-MEL-2 melanoma): > 100 µM
TGI (MDA-MB-231 breast): > 100 µM
TGI (EKVX NSCLC): > 100 µM
TGI (MDA-MB-435): > 100 µM
TGI (K-562 leukemia): > 100 µM
TGI (MDA-N): > 100 µM
TGI (NCI-H522 lung): > 100 µM
TGI (RXF 393 renal): 97.8 µM
TGI (CCRF-CEM leukemia): > 100 µM
TGI (KM12 colon): > 100 µM
TGI (HCT-15 colon): > 100 µM
TGI (MALME-3M melanoma): > 100 µM
TGI (NCI/ADR-RES ovarian): > 100 µM
TGI (IGROV1 ovarian): > 100 µM
TGI (MOLT-4 leukemia): > 100 µM
TGI (OVCAR-5 ovarian): > 100 µM
TGI (PC-3 prostate): > 100 µM
